Assay results reported in patent publication US5994384A, “Pharmaceutical compositions of levo-enantiomers of medetomidine derivatives and their use” (Orion Corporation, priority 1995, dated 1999).

Legend:
[1] = target: T1, adrenergic α-2 receptors (Homo sapiens, UniProt P08913); experiment: cell-based; parameters: This cell line has been used as a model system for studying adrenergic α-2 receptors; endogenous in cells; host or cells: HEL (human erythroleukemia) cells
T1 sequence (P08913 1-465): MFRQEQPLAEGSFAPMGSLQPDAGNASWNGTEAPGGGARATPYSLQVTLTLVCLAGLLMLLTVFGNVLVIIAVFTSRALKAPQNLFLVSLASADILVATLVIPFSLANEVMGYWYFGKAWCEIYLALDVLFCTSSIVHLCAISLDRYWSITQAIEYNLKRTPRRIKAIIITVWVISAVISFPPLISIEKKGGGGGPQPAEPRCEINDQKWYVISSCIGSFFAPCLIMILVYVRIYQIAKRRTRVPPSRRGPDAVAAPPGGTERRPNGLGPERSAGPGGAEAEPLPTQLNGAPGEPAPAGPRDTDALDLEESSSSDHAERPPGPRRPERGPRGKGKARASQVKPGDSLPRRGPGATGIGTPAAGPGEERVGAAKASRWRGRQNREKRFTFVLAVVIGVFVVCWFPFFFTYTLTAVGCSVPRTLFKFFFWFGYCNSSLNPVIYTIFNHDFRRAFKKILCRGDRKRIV
Protocol: The intracellular concentration of cAMP was measured by prelabelling the cells with [^3 H]adenine (Amersham, UK) as described by Jansson et al (1985, Eur. J. Pharmacol. […], 165). Separation of [^3 H]ATP and [^3 H]cAMP was achieved by the method of Salomon et al. (1974, Anal. Biochem. 58, 541). Conversion of cell-associated [^3 H]ATP to [^3 H]cAMP was expressed as a percentage of the total radioactivity and normalized to the percentage recovery of [^14 C]cAMP tracer.

[2] = target: T1, adrenergic α-2 receptors; settings: HEL cells; for antagonism of receptor activation to UK 14,304 by prior administration: intracellular Ca2+, 10 μM UK 14,304, 10 μM I-medetomidine, 1 μM rauwolscine
Excerpt: This system was used to screen different adrenergic α-2 receptor agonists for functional purposes.
The cells were loaded with fura-2/AM (Molecular probes, Junction City, USA). […] The dye responses were calibrated by sequential addition of digitonin and EGTA at the end of the experiment to obtain maximal and minimal fluorescence values, respectively.

Structure (SMILES) | increase in the production of cAMP ([1]; hel cells) | antagonism of receptor activation to UK 14,304 by prior administration [2] | activation at 10 µM ([1]; HEL, read-out: further stimulation of forskolin stimulated cAMP production) | decrease of the concentration of Ca2+ level ([2]; 10 μM compound)
C=C[C@@]1(C)CC(=O)[C@]2(O)[C@@]3(C)[C@@H](O)CCC(C)(C)[C@@H]3[C@H](O)[C@H](OC(C)=O)[C@@]2(C)O1 [forskolin, reference compound] | 10 fold | – | – | –
COC(=O)[C@H]1[C@H]2C[C@H]3c4[nH]c5ccccc5c4CCN3C[C@H]2CC[C@@H]1O [rauwolscine, reference compound] | – | did | – | –
Cc1cccc([C@@H](C)c2cnc[nH]2)c1C [I-medetomidine, Levomedetomidine] | – | did not antagonise receptor activation to UK | 42 ± 27% | -17 ± 2 nM
